How the values were obtained:
[1] = tested on: cap-dependent translation; assay: in vitro translation of (AG)10- and (UC)10-FF/HCV/Ren mRNA reporters in Krebs-2 extracts; assay type: biochemical; settings: cap-proximal (AG)10 or (UC)10
Protocol: Rocaglates show differing mRNA targeting spectra in translation assays. The in vitro experiments described above investigating the rocaglate-mediated inhibition of cap-dependent translation were performed at a fixed rocaglate concentration (2 μM) using a generic bicistronic mRNA reporter in Krebs-2 cell-free translation extracts (FIG. 19C). To better assess the consequences of eIF4A:polypurine clamping on the initiation process, we designed a series of bicistronic reporters harboring cap-proximal polypurine tracks of varying lengths in their 5′ leader region (FIG. 22A). […] We reasoned that these reporters would provide a sensitized readout for rocaglate-induce clamping of eIF4A at this location.
We next tested the response of mRNA reporters containing cap-proximal (AG)10 or (UC)10 sequences (FIG. 22A). […] The difference in activity observed between CR-1-31-B (23) and silvestrol 1 was not restricted to cap-proximal polypurine tracks, but also observed with reporters where the polypurine/polypyrimidine tracks were situated 15 nt downstream from the cap (FIGS. 24A and 24B).
In Vitro Translation Assays. In vitro translation assays performed in Krebs-2 cell extracts were supplemented with 5 mM MgCl2, 30 mM Tris-HCl (pH 7.5), 1.5 mM ATP, 0.1 mM GTP, 0.6 mM CTP, 10 mM dipotassium creatine phosphate, 80 μg/mL creatine kinase, and 0.04 mM amino acids. The specified mRNA reporters were added to each reaction at a final concentration of 10 ng/μL. The translation reactions were incubated with or without compound for 60 minutes at 30° C. prior to the measurement of luciferase activities.
FIGS. 23A-23C. The presence of polypurines bases in mRNA 5′ leader regions are not universal predictors of rocaglate-responsiveness. FIG. 23A. Schematic diagram of FF/HCV/Ren mRNA reporters containing cap-proximal (AG) or (UC) dinucleotide repeats. 23B. Firefly and renilla luciferase activity in response to the indicated CR-1-31-B (23) concentrations (relative to DMSO controls) in Krebs-2 extracts programmed with 4 ng/uL of the indicated mRNAs. n=3±SD. 23C. Dose response of the indicated compounds in Krebs-2 extracts programmed with 4 ng/μL of the indicated mRNAs. n=3± SD.
FIG. 23. Dose-response of (AG)10- and (UC)10-FF/HCV/Ren mRNAs to CMLD011167, hippuristanol and pateamine A in vitro. Firefly and renilla luciferase activity in response to the indicated compound concentrations (relative to DMSO controls) in Krebs-2 extracts programmed with 4 ng/μL of the indicated mRNAs. n=3± SD.

eIF4F = biological target: T1, eIF4F (Mus musculus, UniProt P60843); assay: trans-inhibition and eIF4F rescue in Krebs-2 translation extracts; assay type: biochemical; settings: for effect of added eIF4F on compound-induced inhibition (in words): 100 nM compound, eIF4F 10 nM; for effect of m7GpppG-(AG)10 competitor RNA on (UC)10-FF/HCV/Ren translation (in words): 25-fold molar excess competitor
T1 construct: endogenous in cells; host or cells: Krebs-2 cell-free translation extract
T1 sequence (P60843 2-406 limits assumed): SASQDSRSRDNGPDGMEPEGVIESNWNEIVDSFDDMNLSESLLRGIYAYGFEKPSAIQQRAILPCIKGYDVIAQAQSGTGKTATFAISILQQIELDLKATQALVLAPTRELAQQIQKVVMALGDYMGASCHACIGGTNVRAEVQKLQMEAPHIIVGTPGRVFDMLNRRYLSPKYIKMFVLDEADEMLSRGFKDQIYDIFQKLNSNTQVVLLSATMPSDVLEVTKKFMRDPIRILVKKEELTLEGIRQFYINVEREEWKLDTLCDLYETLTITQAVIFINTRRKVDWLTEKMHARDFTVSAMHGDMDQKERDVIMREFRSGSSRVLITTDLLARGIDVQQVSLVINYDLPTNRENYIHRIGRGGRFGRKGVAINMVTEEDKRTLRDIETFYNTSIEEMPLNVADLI
T1 sequence (P63073 2-217 partner limits assumed): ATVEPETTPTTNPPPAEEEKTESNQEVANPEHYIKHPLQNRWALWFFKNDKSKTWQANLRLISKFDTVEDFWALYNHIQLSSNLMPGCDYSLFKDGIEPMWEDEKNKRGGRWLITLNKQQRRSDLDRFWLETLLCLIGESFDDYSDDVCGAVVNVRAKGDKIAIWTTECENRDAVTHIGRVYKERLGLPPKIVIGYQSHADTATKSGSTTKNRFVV
T1 sequence (Q6NZJ6 whole entry partner): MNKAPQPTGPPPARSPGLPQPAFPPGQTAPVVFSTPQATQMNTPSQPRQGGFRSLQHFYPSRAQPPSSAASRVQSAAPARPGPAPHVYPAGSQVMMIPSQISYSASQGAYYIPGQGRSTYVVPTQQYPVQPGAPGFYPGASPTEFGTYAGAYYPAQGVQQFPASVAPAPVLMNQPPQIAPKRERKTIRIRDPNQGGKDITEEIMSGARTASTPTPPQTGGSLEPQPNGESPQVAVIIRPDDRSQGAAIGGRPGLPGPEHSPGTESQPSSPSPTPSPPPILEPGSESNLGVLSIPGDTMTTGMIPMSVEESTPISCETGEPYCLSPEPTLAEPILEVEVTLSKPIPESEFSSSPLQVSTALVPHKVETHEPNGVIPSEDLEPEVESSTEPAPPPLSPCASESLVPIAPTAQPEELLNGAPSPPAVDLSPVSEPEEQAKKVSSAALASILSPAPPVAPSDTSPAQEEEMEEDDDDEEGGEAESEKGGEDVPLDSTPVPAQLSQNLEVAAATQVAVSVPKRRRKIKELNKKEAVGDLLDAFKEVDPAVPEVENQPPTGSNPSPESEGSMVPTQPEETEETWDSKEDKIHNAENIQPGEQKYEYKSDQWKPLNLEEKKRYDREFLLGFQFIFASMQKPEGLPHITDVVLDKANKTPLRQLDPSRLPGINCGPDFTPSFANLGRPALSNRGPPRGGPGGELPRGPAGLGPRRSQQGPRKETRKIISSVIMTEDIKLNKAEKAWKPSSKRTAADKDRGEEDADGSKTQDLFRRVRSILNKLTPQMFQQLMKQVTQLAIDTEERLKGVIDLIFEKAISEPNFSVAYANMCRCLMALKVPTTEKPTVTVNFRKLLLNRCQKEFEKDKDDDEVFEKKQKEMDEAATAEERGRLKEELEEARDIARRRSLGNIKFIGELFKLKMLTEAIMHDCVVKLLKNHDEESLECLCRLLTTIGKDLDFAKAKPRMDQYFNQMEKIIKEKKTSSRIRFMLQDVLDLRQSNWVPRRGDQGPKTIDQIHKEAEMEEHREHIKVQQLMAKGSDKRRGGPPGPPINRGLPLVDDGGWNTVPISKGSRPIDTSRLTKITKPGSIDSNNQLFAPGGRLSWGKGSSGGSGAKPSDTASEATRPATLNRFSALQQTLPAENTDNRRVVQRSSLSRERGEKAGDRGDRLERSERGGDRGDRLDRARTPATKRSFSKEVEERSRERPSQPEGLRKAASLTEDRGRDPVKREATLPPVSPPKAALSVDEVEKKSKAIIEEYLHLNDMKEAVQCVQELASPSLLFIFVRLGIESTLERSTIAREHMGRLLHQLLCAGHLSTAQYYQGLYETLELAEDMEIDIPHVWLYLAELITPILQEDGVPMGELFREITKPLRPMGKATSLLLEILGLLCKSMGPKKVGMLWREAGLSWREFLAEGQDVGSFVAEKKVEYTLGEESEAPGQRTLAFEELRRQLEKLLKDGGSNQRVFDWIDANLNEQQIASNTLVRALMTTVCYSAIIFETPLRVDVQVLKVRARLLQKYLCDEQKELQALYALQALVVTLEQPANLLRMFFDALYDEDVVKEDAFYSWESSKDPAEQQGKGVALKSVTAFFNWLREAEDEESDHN
Source text: In addition to a primary effect on translation of the target mRNA to which eIF4F is clamped by the rocaglate, this retention is predicted to lead to a reduction in the limiting eIF4F pool available for ribosome recruitment and could exert a trans-inhibitory effect on mRNAs that are not directly-targeted by rocaglates (i.e., absence of polypurine regions in their 5′ leader regions). To test this, we programmed in vitro translation reactions with (UC)10-FF/HCV/Ren mRNA which we found to be unresponsive to CR-1-31-B (23) and RocA (2) (FIG. 22). These were then supplemented with a 25-fold molar excess m^7GpppG-(AG)10 (SEQ ID NO: 10) or ApppG-(AG)10 (SEQ ID NO: 11) competitor RNA (FIG. 30B). […] In contrast, addition of ApppG-(AG)10 (SEQ ID NO: 11) and CR-1-31-B (23) or RocA (2) had little impact on translation of (UC)10-FF/HCV/Ren mRNA, indicating this to be a cap-dependent phenomenon (FIG. 30C, blue dotted line). If rocaglates decrease the pool of active eIF4F complexes, we posit that the addition of eIF4F to translation extracts should rescue rocaglate-mediated inhibition.
FIGS. 30A-30B. Rocaglates exert effects on eIF4F activity. 30A. RPDs performed with m^7GpppG-capped RNA incubated in the presence of retic lysate and either vehicle or 500 nM rocaglate. 30B. Schematic diagram showing assay assessing trans-inhibition of rocaglates. 30C. The presence of m^7GpppG capped, but not ApppG capped, purine-rich RNAs sensitizes the rocaglate-unresponsive m^7GpppG(UC)10-FF/HCV/Ren reporter to inhibition. Translation reactions were performed in Krebs-2 extracts with 10 nM of m^7GpppG(UC)10-FF/HCV/Ren reporter and 250 nM of competitor RNA. Reactions were incubated at 30° C. for 60 min prior to luciferase measurement. n=3±SD. 30D. The addition of recombinant eIF4F rescues rocaglate mediated translation inhibition. The m^7GpppG(AG)10-FF/HCV/Ren reporter was added to Krebs-2 translation extracts in the presence eIF4F and 100 nM of the indicated compound. Reactions were incubated at 30° C. for 60 min prior to luciferase measurement. n≥3, ±SEM

| SMILES | inhibition of (AG)10 versus (UC)10 reporter in vitro (in words) [1] | effect of added eIF4F on compound-induced inhibition (in words) (eIF4F) | effect of m7GpppG-(AG)10 competitor RNA on (UC)10-FF/HCV/Ren translation (in words) (eIF4F) |
| --- | --- | --- | --- |
| COC(=O)[C@H]1[C@@H](O)[C@@]2(O)c3c(OC)cc(O[C@@H]4O[C@@H]([C@H](O)CO)CO[C@H]4OC)cc3O[C@@]2(c2ccc(OC)cc2)[C@@H]1c1ccccc1 [silvestrol] | equally inhibited both mRNA reporters | partially rescue |  |
| COC(=O)[C@@H]1[C@@H](c2ccccc2)[C@]2(c3ccc(OC)cc3)Oc3cc(OC)cc(OC)c3[C@@]23N=C(C)N[C@@]13O [9b] | equally inhibited translation of both (AG)10 and (UC)10 reporters |  |  |
| CONC(=O)[C@H]1[C@@H](O)[C@@]2(O)c3c(OC)cc(OC)cc3O[C@@]2(c2ccc(OC)cc2)[C@@H]1c1ccccc1 [CR-1-31-B] | inhibited cap-dependent translation (FLuc) from only the (AG)10-containing mRNA | partially rescue | sensitized (UC)10-FF/HCV/Ren mRNA to inhibition |
| COc1ccc([C@@]23Oc4cc(OC)cc(OC)c4[C@]2(O)[C@H](O)[C@H](C(=O)N(C)C)[C@H]3c2ccccc2)cc1 [RocA, rocaglamide A] | inhibited cap-dependent translation (FLuc) from only the (AG)10-containing mRNA |  | sensitized (UC)10-FF/HCV/Ren mRNA to inhibition |

Source: patent US11279708B2, “Amidino- and amino-rocaglates as novel translation inhibitors and anticancer agents” (priority 2019, dated 2022)
